# According to EP3981864A1, “DETERGENT COMPOSITION” (priority 2020, dated 2022):
# Legend:
# [1] = molecular target: T1, Arabidopsis thaliana αDOX (SEQ ID NO: 10), fatty acid alpha-dioxygenase, Q9C9U3, variant with N-terminal His-tag, MBP tag and TEV site SEQ ID NO: 267 (comparati (Arabidopsis thaliana, UniProt Q9C9U3)); assay: Alpha-dioxygenase activity assay (oxygen consumption, TON); type: biochemical; conditions: fatty acid 100 µM, enzyme 6 ppm, 50 mM HEPES pH 9.0, 37°C; initial rate of oxygen consumption / enzyme concentration
# T1 construct: His-tag (N); MBP tag (N); TEV protease cleavage site (N); made in house; host or cells: Escherichia coli BL21 (DE3), modified pET28a
# T1 sequence (Q9C9U3 21-631): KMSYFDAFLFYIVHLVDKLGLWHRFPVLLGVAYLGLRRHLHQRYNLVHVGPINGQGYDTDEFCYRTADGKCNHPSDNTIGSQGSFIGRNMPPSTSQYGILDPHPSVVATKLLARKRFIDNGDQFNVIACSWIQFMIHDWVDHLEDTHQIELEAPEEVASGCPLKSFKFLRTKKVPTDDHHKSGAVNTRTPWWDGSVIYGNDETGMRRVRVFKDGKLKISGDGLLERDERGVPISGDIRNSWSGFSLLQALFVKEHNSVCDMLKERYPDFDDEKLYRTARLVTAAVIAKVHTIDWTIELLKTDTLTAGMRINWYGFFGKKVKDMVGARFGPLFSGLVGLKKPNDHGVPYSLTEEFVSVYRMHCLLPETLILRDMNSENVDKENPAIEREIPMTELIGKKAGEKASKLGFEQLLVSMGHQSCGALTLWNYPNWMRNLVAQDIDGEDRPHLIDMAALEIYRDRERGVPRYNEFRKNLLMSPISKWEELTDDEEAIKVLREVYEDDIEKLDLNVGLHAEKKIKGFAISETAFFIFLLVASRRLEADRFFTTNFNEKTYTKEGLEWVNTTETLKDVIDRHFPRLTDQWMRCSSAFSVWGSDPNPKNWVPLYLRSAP
# Source text: Arabidopsis thaliana αDOX (SEQ ID NO: 10) is a fatty acid alpha-dioxygenase that converts fatty acids into the corresponding 2-hydroperoxy fatty acids and is included as a comparative example of the present invention. A codon optimized gene (SEQ ID NO: 266) encoding for an alpha-dioxygenase variant was designed and synthesized by Genscript. After synthesis, the gene was cloned into a modified version of pET28a, such as the final plasmid encoded for a αDOX variant including an N-terminal amino acid sequence containing a His-tag, an MBP tag, and a TEV protease cleavage site (SEQ ID NO: 267). For heterologous expression, Escherichia coli BL21 (DE3) cells were transformed with the recombinant plasmid and a single colony was inoculated into LB medium containing kanamycin (50 mg/L). A pre-starter culture was then inoculated into flasks containing TB Media supplemented with kanamycin (50 mg/L) and incubated at 37 °C. At an OD600nm about 3.8, IPTG (final concentration 0.1 mM) and 5-aminolevulinic acid (final concentration 0.25 mM) were added to the culture and further incubated at 16 °C for 16 h. Cells were harvested by centrifugation and the pellet was lysed. After centrifugation, the supernatant was collected, and the protein was purified by one-step purification using Ni-NTA affinity chromatography and standard protocols known in the art. The protein was stored in 1×PBS buffer containing 10% Glycerol and at pH 7.4. The purified enzyme was stored at -80 °C until use.
# Reactions with alpha-dioxygenases were performed as follows. An aliquot of fatty acid in ethanol (final concentration 100 µM) was resuspended in buffer (50 mM HEPES at pH 9.0) in a scintillation vial. The reaction was started by addition of enzyme (final concentration 6 ppm). The reaction was incubated for up to 10 minutes at 37°C with 200 rpm agitation and the conversion was monitored using an oxygen sensor. The TON (in s-1) were calculated as the ratio between the initial rate of oxygen consumption (in µM/s) and the concentration of enzyme (in µM). […]
# [2] = tested on: Pseudomonas alcaligenes αDOX (SEQ ID NO: 12), fatty acid alpha-dioxygenase, U3BA19, N-terminal His-tag variant SEQ ID NO: 271 (comparative); assay: as above; type: biochemical; conditions: fatty acid 100 µM, enzyme 6 ppm, 50 mM HEPES pH 9.0, 37°C; initial rate of oxygen consumption / enzyme concentration
# Source text: Pseudomonas alcaligenes αDOX (SEQ ID NO: 12) is a fatty acid alpha-dioxygenase that converts fatty acids into the corresponding 2-hydroperoxy fatty acids and is included as a comparative example of the present invention. A codon optimized gene (SEQ ID NO: 270) encoding for an alpha-dioxygenase variant (SEQ ID NO: 271), including an N-terminal amino acid sequence containing a His-tag was designed and synthesized by Genscript. After gene synthesis, the protein was expressed and purified. In brief, the complete synthetic gene sequence was subcloned into a pET30a vector using the NdeI/HindIII cloning sites. For heterologous expression, Escherichia coli BL21 (DE3) cells were transformed with the recombinant plasmid and a single colony was inoculated into LB medium containing kanamycin (50 mg/L). A pre-starter culture was then inoculated into flasks containing Magic Media (Thermo Fisher, Catalog # K6803) supplemented with kanamycin (50 mg/L) and incubated at 16 °C for 72 h. At an OD600nm = 0.5 - 1.0, 5-aminolevulinic acid (final concentration 0.5 mM) was added. Cells were harvested by centrifugation at 5000 rpm and 4°C and the pellet was lysed using a bacterial cell lysis buffer (B-PER - Themo Fisher, Waltham, MA). After centrifugation, the supernatant was collected, and the protein was purified by one-step purification using HisPur™ Ni-NTA Spin Columns (Thermo Scientific, Catalog # 88226) and standard protocols known in the art. The protein was concentrated using a 10 kDa MW cutoff Amicon Ultra centrifugal filter unit (Millipore Sigma, Catalog# UFC901024), followed by desalting using a disposable PD-10 desalting column (GE Healthcare Life Sciences, Catalog# 17085101) and a buffer containing 50 mM Tris-HCl, 500 mM NaCl, and 10% Glycerol at pH 8.0. […]
# Reactions with alpha-dioxygenases were performed as follows. […] The reaction was incubated for up to 10 minutes at 37°C with 200 rpm agitation and the conversion was monitored using an oxygen sensor. The TON (in s-1) were calculated as the ratio between the initial rate of oxygen consumption (in µM/s) and the concentration of enzyme (in µM). […]
smiles,measurement,setting,value
CCCCCCCC/C=C\CCCCCCCC(=O)O [Oleic Acid],"Oleic Acid, TON",[1],0.13 s⁻¹
same,"Oleic Acid, TON",[2],0.00 s⁻¹
CCCCCCCCCCCCCCCC(=O)O [Palmitic Acid],"Palmitic Acid, TON",[1],0.54 s⁻¹
same,"Palmitic Acid, TON",[2],0.36 s⁻¹
CCCCCCCCCCCCCCCCCC(=O)O [Stearic Acid],"Stearic Acid, TON",[1],0.13 s⁻¹
same,"Stearic Acid, TON",[2],0.21 s⁻¹
